How the values were obtained:
[1] = mRNA encapsulation efficiency, Quant-iT RiboGreen RNA Assay; type: physicochemical; conditions: LNP ionizable lipid:DSPC:Plant Chol.:DMPE-PEG2k 50:10:38.5:1.5
[2] = system: Balb/c mice; test: EPO levels in plasma by EPO MSD kit after IV injection of EPO mRNA LNP; type: in vivo
Method: 8-9 week old female Balb/c mice are utilized for bioluminescence-based ionizable lipid screening efforts. Mice are obtained from Jackson Laboratories (JAX Stock: 000651) and allowed to acclimate for one week prior to manipulations. Animals are placed under a heat lamp for a few minutes before introducing them to a restraining chamber. The tail is wiped with alcohol pads (Fisher Scientific) and 100 μL of a lipid nanoparticle composition descrbed above containing 10 ug total mRNA (5 ug Fluc+5 ug EPO) is injected intravenously using a 29 G insulin syringe (Covidien). Any resulting bleeding is stemmed using a sterile gauze pad (Fisher Scientific) and animals are placed back into their home cage. 4-6 hours post-dose, animals are injected with 200 μL of 15 mg/mL D-Luciferin (GoldBio) and placed in an isoflurane induction chamber set to deliver 2.5% isoflurane delivered at an oxygen flow rate of 1-2 liters per min. After 5 minutes of isoflurane exposure, mice are placed in set nose cones inside the IVIS Lumina LT imager (PerkinElmer). LivingImage software is utilized for imaging. Whole body bio-luminescence is captured at auto-exposure after which animals are removed from the IVIS and placed into a CO2 chamber for euthanasia. Cardiac puncture is performed on each animal after placing it in dorsal recumbency, and blood collection is performed using a 25 G insulin syringe (BD). Blood is collected in Lithium-Heparin coated tubes (Fisher Scientific) and immediately placed on ice. Once all blood samples are collected, tubes are spun at 2000 G for 10 minutes using a tabletop centrifuge and plasma is aliquoted into individual Eppendorf tubes (Fisher Scientific) and stored at −80 C for subsequent EPO quantification. EPO levels in plasma are determined using EPO MSD kit (Meso Scale Diagnostics).
8-9 week old female Balb/c mice were utilized for bioluminescence-based ionizable lipid screening efforts. Mice were obtained from Jackson Laboratories (JAX Stock: 000651) and allowed to acclimate for one week prior to manipulations. Animals were placed under a heat lamp for a few minutes before introducing them to a restraining chamber. The tail was wiped with alcohol pads (Fisher Scientific) and, for each LNP composition descrbed above, 100 μL of a lipid nanoparticle composition descrbed above containing 10 μg total mRNA (5 μg Fluc+5 μg EPO, 5 μg Fluc+5 μg Cre, or 5 μg EGFP) was injected intravenously using a 29 G insulin syringe (Covidien).
4-6 hours post-dose, animals were injected with 200 μL of 15 mg/mL D-Luciferin (GoldBio), and placed in set nose cones inside the IVIS Lumina LT imager (PerkinElmer). LivingImage software was utilized for imaging. Whole body bio-luminescence was captured at auto-exposure after which animals are removed from the IVIS and placed into a CO2 chamber for euthanasia. Cardiac puncture was performed on each animal after placing it in dorsal recumbency, and blood collection was performed using a 25 G insulin syringe (BD). Once all blood samples were collected, tubes are spun at 2000 G for 10 minutes using a tabletop centrifuge and plasma was aliquoted into individual Eppendorf tubes (Fisher Scientific) and stored at −80° C. for subsequent EPO quantification. EPO levels in plasma were determined using EPO MSD kit (Meso Scale Diagnostics).

[3] = LNP size and polydispersity, Zetasizer Ultra; type: physicochemical
In short: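 Lipids dissolved in ethanol were combined with mRNA solution at a 1:3 volume ratio on a NanoAssemblr Ignite at 9 mL/min total flow. Particles were dialyzed in Slide-A-Lyzer G2 cassettes (10 k MWCO) against 1×PBS, then overnight at 4° C., concentrated with Amicon Ultra filters (100 k MWCO), and measured for size and polydispersity on a Zetasizer Ultra.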

[4] = mRNA encapsulation efficiency, Quant-iT RiboGreen RNA Assay; type: physicochemical
[5] = Example 5 LNP (DOPE 35:16:46.5:2.5), 5 μg FLUC + 5 μg EPO
[6] = LNP lipid:DOPE:Plant Chol.:DMPE-PEG2k 35:16:46.5:2.5 (Table 1), 5 ug Fluc+5 ug EPO mRNA
[7] = LNP lipid:DSPC:Plant Chol.:DMPE-PEG2k 50:10:38.5:1.5, 5 ug Fluc+5 ug EPO mRNA
[8] = Example 5 LNP lipid:DOPE:Plant Cholesterol:DMPE-PEG2k 35:16:46.5:2.5, FLUC/EPO 1:1 mRNA, N:P 6:1
[9] = LNP ionizable lipid:DOPE:Plant Chol.:DMPE-PEG2k 35:16:46.5:2.5 (Table 1)
[10] = LNP ionizable lipid:DSPC:Plant Chol.:DMPE-PEG2k 50:10:38.5:1.5

Row | Structure (SMILES) | % EE [1] [%] | hEPO [2, 5] | hEPO [2, 6] | hEPO [2, 7] | PDI [3, 8] | Size (nm) [3, 8] [nm] | PDI [3, 9] | Size (nm) [3, 9] [nm] | PDI [3, 10] | Size (nm) [3, 10] [nm] | % EE [4, 8] [%] | % EE [4, 9] [%]
1 | CCCCCCCCCCCOC(=O)CCCCCN(CCCCCCCC(=O)OC(CCCCCCCC)CCCCCCCC)CCNC(=O)/C=C/C(=O)NCCN(CCCCCCCC(=O)OC(CCCCCCCC)CCCCCCCC)CCCCCC(=O)OCCCCCCCCCCC [Compound 2252, 1-octylnonyl 8-[2-[[(E)-4-[2-[[8-(1-octylnonoxy)-8-oxo-octyl]-(6-oxo-6-undecoxy-hexyl)amino]ethylamino]-4-oxo-but-2enoyl]amino]ethyl-(6-oxo-6-undecoxy-hexyl)amino]octanoate] | 70.4 | 5.6E+05 | 5.62E+05 | 2.03E+04 | 0.13 | 70.0 | 0.13 | 69.98 | 0.05 | 126.40 | 94.5 | 94.5
2 | C=C(CN(CCCCCCCC(=O)OC(CCCCCCCC)CCCCCCCC)CCCCCC(=O)OCCCCCCCCCCC)CN(CCCCCCCC(=O)OC(CCCCCCCC)CCCCCCCC)CCCCCC(=O)OCCCCCCCCCCC [Compound 2253, 1-octylnonyl 8-[2-[[[8-(1-octylnonoxy)-8-oxo-octyl]-(6-oxo-6-undecoxy-hexyl)amino]methyl]allyl-(6-oxo-6-undecoxy-hexyl)amino]octanoate] | 27.3 | 8.9E+01 | 8.89E+01 | 8.89E+01 | 0.23 | 107.9 | 0.23 | 107.87 | 0.18 | 120.70 | 82.7 | 82.7
